According to article PMC7083880 (Nature Communications, 2020):

Legend:
[1] = tested on: HCC-GR6 cell tumors (wild-type TP53) in nude mice; test: In vivo tumor growth, HCC-GR6 cells in nude mice; design: species or system mouse; details: force-fed daily, 5 weeks
Experimental: Next, the capacity of DAP to correct UGA nonsense mutations in vivo was assessed in a mouse model. Four-week-old immunodeficient nude mice were injected with an identical number of Calu-6 cells carrying a UGA nonsense mutation in the TP53 gene, of HCC-GR6 cells having a wild-type TP53 gene or of p53-null 4T1 cells. […] The slower growth of Calu-6-cell-derived tumors in DAP-treated mice is thus likely due to rescue of p53 protein synthesis in these tumors, as expected on the basis of our cell culture experiments and as observed after western-blotting applied to protein extracts of tumors from DAP-treated mice (Supplementary Fig. 8B). Because of the small size of the Calu-6 tumors in DAP-treated mice and thus the high probability of collecting mouse cells upon tumor excision, quantitation of p53 was done in another experiment.
To initiate tumor growth, 6-week-old nude mice received subcutaneously 10 million cells suspended in PBS. […] Tumors were measured three times weekly for 5 weeks to determine the tumor volume by the following formula: l (mm) × L (mm) × L (mm). […]
The mice were exposed to DMSO or DAP for about five weeks and tumor size was measured three times weekly and plotted on the graph. […]
(B) Western blot analysis of p53 protein in the Calu-6-cell tumors of the seven DMSO-exposed and seven DAP-exposed mice. […] Error bar= S.D., p-values (p) were calculated using Student's t-test. […]

FTSJ1 = target: T1, FTSJ1 (Homo sapiens, UniProt Q9UET6); test: DAP affinity column chromatography; type: binding; details: HeLa cell extract
T1 construct: host or cells: HeLa
T1 sequence (Q9UET6 1-329): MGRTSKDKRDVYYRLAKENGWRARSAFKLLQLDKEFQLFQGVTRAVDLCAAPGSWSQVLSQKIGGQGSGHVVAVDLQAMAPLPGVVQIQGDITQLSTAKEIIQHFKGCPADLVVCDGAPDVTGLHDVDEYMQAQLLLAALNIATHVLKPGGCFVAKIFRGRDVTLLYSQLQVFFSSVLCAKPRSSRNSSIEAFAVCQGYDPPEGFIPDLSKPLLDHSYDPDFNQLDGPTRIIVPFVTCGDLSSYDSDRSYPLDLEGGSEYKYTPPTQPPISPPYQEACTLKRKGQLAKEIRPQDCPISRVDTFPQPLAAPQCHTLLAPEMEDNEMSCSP
Excerpt: Firefly luciferase from HEK293FT cells transfected with the Fluc-int-UGA construct was immunoprecipitated and digested with trypsin. The MS/MS spectrum of the peptide containing the PTC position and the sequence determination are shown. The upper red and blue sequences indicate the amino acids validated, respectively, by detection of Nter and Cter peptide fragments (b and y ion series). Peptide fragments y6 and y7 clearly identify tryptophan (W) at the PTC position. The black peaks correspond to non-attributed mass-to-charge ratio (m/z) values. […] Readthrough efficiency was determined by measuring luciferase activity in HeLa cells co-transfected with the firefly luciferase construct described in Fig. 1b and with increasing amounts of an expression vector for either FTSJ1 or CTU1 (0.5, 1, or 2 µg). The empty expression vector (E.v.) was used as control. […] The experiment was performed twice and the results of both experiments (Exp1 and Exp2) are shown. c Western blot analysis of FTSJ1 and CTU1. d 2′-O-methylation analysis of tRNA^Trp, tRNA^SER, and tRNA^GLN by RiboMethSeq. […] A molecular weight marker is indicated to the left of each gel. p-values (p) were calculated using Student’s t-test. Source data are provided as a Source Data file.
The eluate was analyzed by western blotting for the presence of various proteins, including FTSJ1. […]

In the case of `Nc1nc(N)c2[nH]cnc2n1` [DAP, 2,6-diaminopurine], the “Tumor growth vs DMSO, in words” value [1] was “no significant difference in tumor growth” and the “Binding to FTSJ1 (affinity column, western blot of eluate)” value (FTSJ1) was “binds to FTSJ1”.
